Reference: patent US9776972B2, “Pyrazole derivatives as arginine methyltransferase inhibitors and uses thereof” (priority 2013, dated 2017)
Like-named read-outs stand apart in the source and are kept apart here.

How the values were obtained:
[1] = tested on: mono-methyl arginine in RKO cells; test: RKO Methylation Assay, In Cell Western (ICW) for mono-methyl arginine and DNA content; format: cell-based; details: for EC30: Homo sapiens, RKO, 72 h; for EC30 (In Cell Western data): class symbols
Outline: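 RKO cells treated with compound for 72 hours at 37 °C, then methanol-fixed and stained overnight at 4 °C with anti-mono-methyl arginine antibody, plus DRAQ5 for DNA. Signal ratio from 700 and 800 nm infrared scans normalized to DMSO (minimum) and 20 μM reference compound (maximum); EC30 from triplicate curves.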

[2] = biological target: T1, human PRMT1 (Homo sapiens, UniProt Q99873); test: PRMT1 Biochemical Assay (3H-SAM Flashplate, peptide substrate); details: single experiment or average of multiple experiments
T1 construct: GST-tagged PRMT1; made in house; host or cells: High Five insect cells (baculovirus)
Outline: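 GST-tagged PRMT1 from baculovirus-infected cells, preincubated with compounds 30 min at room temperature in 20 mM Bicine pH 7.6, 1 mM TCEP, 0.005% BSG, 0.002% Tween 20. Reaction started with ³H-SAM plus biotinylated peptide, stopped with 300 µM cold SAM.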

[3] = RKO cells, 72 hours, mono-methyl arginine, percent activation, single experiment or average of multiple experiments, read-out: EC30 (In Cell Western data, Numerical)
[4] = read-out: EC30 (In Cell Western data, Numerical, μM)
[5] = RKO cells, 72 hours, mono-methyl arginine, percent activation

T1 sequence (Q99873 with tags, fused parts or gaps): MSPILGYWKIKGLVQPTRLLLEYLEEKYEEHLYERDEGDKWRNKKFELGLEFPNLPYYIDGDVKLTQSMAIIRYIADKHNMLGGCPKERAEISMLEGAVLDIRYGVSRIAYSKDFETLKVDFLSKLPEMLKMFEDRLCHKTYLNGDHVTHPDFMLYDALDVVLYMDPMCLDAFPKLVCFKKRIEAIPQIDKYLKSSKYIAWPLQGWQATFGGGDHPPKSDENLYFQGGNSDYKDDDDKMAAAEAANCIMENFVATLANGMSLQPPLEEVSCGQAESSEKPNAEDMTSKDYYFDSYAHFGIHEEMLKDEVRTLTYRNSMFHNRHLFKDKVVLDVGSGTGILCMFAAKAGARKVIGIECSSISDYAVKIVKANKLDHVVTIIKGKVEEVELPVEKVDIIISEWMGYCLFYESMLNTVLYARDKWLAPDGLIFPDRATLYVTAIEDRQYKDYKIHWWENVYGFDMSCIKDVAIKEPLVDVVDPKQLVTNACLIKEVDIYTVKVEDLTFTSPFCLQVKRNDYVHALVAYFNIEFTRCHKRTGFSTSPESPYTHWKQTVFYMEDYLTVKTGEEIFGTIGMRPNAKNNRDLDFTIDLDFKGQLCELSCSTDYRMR

Structure (SMILES)	IC50 [2]	EC30 [1, 3]	other results
CN(CCN)Cc1c[nH]nc1-c1ccc(F)cc1 [Compound 1]		7.4 µM	
CN(CCN)Cc1cn(C)nc1-c1ccc(F)cc1 [Compound 3]	58.1 nM	16.2 µM	
CN(CCN)Cc1cnn(C)c1-c1ccc(F)cc1 [Compound 4]	152 nM		EC30 [1, 4]: 12.1 µM
COCCn1cc(CN(C)CCN)c(-c2ccc(F)cc2)n1 [Compound 5]	1190 nM	> 20 µM	
CNCCN(C)Cc1c[nH]nc1-c1cccc(N)c1 [Compound 32]			EC30 (In Cell Western data) [1, 5]: C (“C” indicates an EC30 ≧ 12.01 μM)
CNCCN(C)Cc1c[nH]nc1-c1ccc(CC#N)cc1 [Compound 34]			EC30 (In Cell Western data) [1, 5]: C (“C” indicates an EC30 ≧ 12.01 μM)
CNCCN(C)Cc1c[nH]nc1-c1ccccc1O [Compound 35]			EC30 (In Cell Western data) [1, 5]: C (“C” indicates an EC30 ≧ 12.01 μM)
CNCCN(C)Cc1c[nH]nc1-c1ccccc1NS(C)(=O)=O [Compound 41]			EC30 (In Cell Western data) [1, 5]: C (“C” indicates an EC30 ≧ 12.01 μM)
CNCCN(C)Cc1c[nH]nc1-c1cccc(NC(C)=O)c1 [Compound 42]			EC30 (In Cell Western data) [1, 5]: C (“C” indicates an EC30 ≧ 12.01 μM)
CNCCN(C)Cc1c[nH]nc1-c1cccc(C(C)=O)c1 [Compound 44]			EC30 (In Cell Western data) [1, 5]: C (“C” indicates an EC30 ≧ 12.01 μM)
CNCCN(C)Cc1c[nH]nc1-c1ccc(-c2ccccc2)cc1 [Compound 47]			EC30 (In Cell Western data) [1, 5]: A (“A” indicates an EC30 ≦ 3.00 μM); EC30 (In Cell Western data, Numerical, μM) ([1]; RKO cells, 72 hours, mono-methyl arginine, percent activation, single experiment or average of multiple experiments): 0.104 µM
CC(C)Oc1ccc(-c2n[nH]cc2CN(C)CCN)cc1 [Compound 67]		0.507 µM	
CN(CCN)Cc1n[nH]cc1-c1ccc(F)cc1 [Compound 69]	51.1 nM	7.99 µM	
CN(CCN)Cc1c[nH]nc1-c1cccc(C#N)c1 [Compound 70]	200 nM	> 20 µM	
CN(CCN)Cc1c[nH]nc1-c1cccc(F)c1 [Compound 71]	18.8 nM	3.72 µM	
CN(CCN)Cc1c[nH]nc1-c1ccccc1F [Compound 72]	278 nM		
CN(CCN)Cc1c[nH]nc1-c1ccccc1 [Compound 73]	126 nM	14.7 µM	
CN(CCN)Cc1c[nH]nc1-c1ccc(C(C)(C)C)cc1 [Compound 74]	14.9 nM	6.34 µM	
CC(C)N(CCN)Cc1c[nH]nc1-c1ccc(F)cc1 [Compound 75]	616 nM	> 20 µM	
CN(CCN)Cc1cn(C2COC2)nc1-c1ccc(F)cc1 [Compound 77]	215 nM		EC30 [1, 4]: 12.5 µM
CN(CCN)Cc1c[nH]nc1-c1ccc(C(F)(F)F)cc1C(F)(F)F [Compound 85]	234 nM		EC30 [1, 4]: > 20 µM
CC(C)Oc1ccc(-c2n[nH]cc2CN(C)CCN)cc1Cl [Compound 168]		0.066 µM	

Second part, led by results:

IC50 [2]	Structure (SMILES)	EC30 [1, 3]	other results
328 nM	NCCN(Cc1c[nH]nc1-c1ccc(F)cc1)C1CC1 [Compound 78]	10.6 µM	
435 nM	CN(CCN)Cc1cnn(C2COC2)c1-c1ccc(F)cc1 [Compound 81]	> 20 µM	
96.1 nM	CN(CCN)Cc1c[nH]nc1-c1ccc(N2CCNCC2)cc1 [Compound 82]	> 20 µM	
30.3 nM	CN(CCN)Cc1nn(C)cc1-c1ccc(C#N)cc1 [Compound 83]	6.75 µM	
24 nM	CN(CCN)Cc1c[nH]nc1-c1ccc(Cl)cc1Cl [Compound 86]	5.63 µM	
172 nM	COc1ccc(-c2n[nH]cc2CN(C)CCN)c(OC)c1 [Compound 87]	> 20 µM	
128 nM	Cc1ccc(-c2n[nH]cc2CN(C)CCN)c(C)c1 [Compound 88]	14.5 µM	
67.4 nM	CN(CCN)Cc1c[nH]nc1-c1ccc(F)cc1Cl [Compound 89]	11 µM	
41.3 nM	Cc1ccc(-c2n[nH]cc2CN(C)CCN)c(Cl)c1 [Compound 90]	10.4 µM	
272 nM	Cc1ccc(Cl)c(-c2n[nH]cc2CN(C)CCN)c1 [Compound 91]	> 20 µM	
5.69 nM	CN(CCN)Cc1c[nH]nc1-c1ccc(C(F)(F)F)cc1 [Compound 92]	0.956 µM	
4.64 nM	CN(CCN)Cc1c[nH]nc1-c1ccc(OC(F)(F)F)cc1 [Compound 93]	1.11 µM	
7.97 nM	CN(CCN)Cc1c[nH]nc1-c1ccc(OC(F)F)cc1 [Compound 94]	1.78 µM	
7.84 nM	CN(CCN)Cc1c[nH]nc1-c1ccc(Cl)cc1 [Compound 95]	1.23 µM	
